Legend:
[1] = test system: Skin tissues from a donor; test: Lightness (L* value) of cultured human skin tissue with autophagy-regulating agent; assay type: cell-based; settings: verapamil 10 μM, rapamycin 1 μM or HCQ 10 μM; cultured 8 days; colorimeter; FIG. 10
Experimental: Skin tissues were collected from a donor, and were then cultured in the presence or absence of an autophagy inducer verapamil (10 μM) or rapamycin (1 μM), or an autophagy inhibitor hydroxychloroquine (HCQ, 10 μM). After completion of the culture for 8 days, the lightness (L* value) of the cultured skin was measured with a colorimeter (Colorimeter; cyberDERM).

[2] = test system: 3D-HSSs (three-dimensional human skin substitutes containing NHEK and NHEM); test: 3D-HSSs cultured with autophagy inducer or inhibitor (photographs, Western blotting); assay type: cell-based; settings: HCQ 10 μM with endothelin-1 and SCF, 14 days
Experimental: Three-dimensional culture human skin models (3D-human skin substitutes; 3D-HSSs) were purchased from MatTek Co. (MEL-300A or B), and they were then maintained at 37° C. in 5% CO2 in EPI-100NMM-113 medium (MatTek Co.) according to a production manual included therewith.
3D-HSSs (three-dimensional human skin substitutes, reconstituted epidermal models containing NHEK and NHEM) were cultured together with an autophagy inducer verapamil (10 μM) or rapamycin (1 μM) for 14 days. The medium was exchanged with a fresh one every other day. After completion of the culture, Western blotting analysis was carried out on the culture, using a p62-specific antibody (MBL International) and an LC3-specific antibody (Cosmo Bio Co. Ltd. or MBL International) by the same procedures as those applied in Reference Example 1.
On the other hand, 3D-HSSs were cultured together with an autophagy inhibitor hydroxychloroquine (HCQ, 10 μM) in the presence of endothelin-1 and SCF for 14 days, and Western blotting analysis was then carried out on the culture.

## COc1ccc(CCN(C)CCCC(C#N)(c2ccc(OC)c(OC)c2)C(C)C)cc1OC (stereo not shown) [verapamil]
[1]
  lightness (L* value) of the cultured skin: increased

## CCN(CCO)CCCC(C)Nc1ccnc2cc(Cl)ccc12 (stereo not shown) [hydroxychloroquine]
[2]; FIG. 9C
  darkening of 3D-HSSs: became darkened
[2]; FIG. 9D
  amount of p62: increased
[1]
  lightness (L* value) of the cultured skin: decreased
